{"source": "ChEMBL document CHEMBL1201862", "about": "“PubChem BioAssay data set” (2004)", "key": {"[1]": {"biological_target": "cAMP-dependent protein kinase catalytic subunit alpha (Homo sapiens, UniProt P17612)", "format": "functional"}, "Exodeoxyribonuclease V": {"biological_target": "T1, Exodeoxyribonuclease V (Escherichia coli (strain K12), UniProt P04993+P07648+P08394)", "T1 sequence (P04993 whole entry)": "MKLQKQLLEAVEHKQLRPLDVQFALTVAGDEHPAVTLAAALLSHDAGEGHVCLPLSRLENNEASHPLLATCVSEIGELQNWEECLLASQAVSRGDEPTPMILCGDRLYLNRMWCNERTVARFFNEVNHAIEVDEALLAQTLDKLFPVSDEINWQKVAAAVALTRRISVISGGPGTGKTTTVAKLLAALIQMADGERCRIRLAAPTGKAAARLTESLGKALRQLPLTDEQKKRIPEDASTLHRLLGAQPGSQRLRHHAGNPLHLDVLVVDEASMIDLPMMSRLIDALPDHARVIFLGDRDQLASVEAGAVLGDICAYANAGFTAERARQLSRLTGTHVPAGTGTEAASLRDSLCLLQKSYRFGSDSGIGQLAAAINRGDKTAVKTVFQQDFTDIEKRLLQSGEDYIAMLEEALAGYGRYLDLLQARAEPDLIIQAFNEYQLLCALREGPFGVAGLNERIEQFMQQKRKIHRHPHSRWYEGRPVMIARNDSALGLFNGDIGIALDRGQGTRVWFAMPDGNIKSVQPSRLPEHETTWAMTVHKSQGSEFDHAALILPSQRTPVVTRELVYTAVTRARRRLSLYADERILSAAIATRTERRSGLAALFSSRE", "T1 sequence (P07648 whole entry)": "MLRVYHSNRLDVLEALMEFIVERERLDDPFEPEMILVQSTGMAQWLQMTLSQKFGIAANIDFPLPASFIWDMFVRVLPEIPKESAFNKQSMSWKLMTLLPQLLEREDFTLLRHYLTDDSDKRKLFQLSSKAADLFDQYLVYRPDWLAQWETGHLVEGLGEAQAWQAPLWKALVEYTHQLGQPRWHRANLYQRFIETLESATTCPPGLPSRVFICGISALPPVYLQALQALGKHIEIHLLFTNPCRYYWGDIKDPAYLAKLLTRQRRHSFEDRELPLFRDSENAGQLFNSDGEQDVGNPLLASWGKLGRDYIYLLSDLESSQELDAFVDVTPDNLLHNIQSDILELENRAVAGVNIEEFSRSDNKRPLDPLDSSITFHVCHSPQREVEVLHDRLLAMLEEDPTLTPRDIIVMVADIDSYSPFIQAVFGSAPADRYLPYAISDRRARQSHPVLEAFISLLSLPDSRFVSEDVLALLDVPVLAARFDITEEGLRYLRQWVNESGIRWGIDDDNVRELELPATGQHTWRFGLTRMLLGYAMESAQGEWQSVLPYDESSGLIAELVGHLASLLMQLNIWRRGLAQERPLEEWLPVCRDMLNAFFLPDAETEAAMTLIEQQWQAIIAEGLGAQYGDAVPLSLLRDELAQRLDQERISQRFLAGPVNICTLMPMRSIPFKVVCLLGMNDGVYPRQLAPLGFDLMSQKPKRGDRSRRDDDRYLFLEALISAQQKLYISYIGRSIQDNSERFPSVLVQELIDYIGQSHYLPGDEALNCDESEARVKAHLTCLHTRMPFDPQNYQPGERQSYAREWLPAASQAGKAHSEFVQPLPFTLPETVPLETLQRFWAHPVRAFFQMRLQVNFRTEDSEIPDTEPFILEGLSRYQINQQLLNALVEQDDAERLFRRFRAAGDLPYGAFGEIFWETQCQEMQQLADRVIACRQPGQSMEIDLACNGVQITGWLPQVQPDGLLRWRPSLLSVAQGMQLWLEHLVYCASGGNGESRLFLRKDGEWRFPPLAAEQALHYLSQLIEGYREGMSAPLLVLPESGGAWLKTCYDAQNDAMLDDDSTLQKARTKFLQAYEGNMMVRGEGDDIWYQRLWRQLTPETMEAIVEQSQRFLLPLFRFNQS", "T1 sequence (P08394 whole entry)": "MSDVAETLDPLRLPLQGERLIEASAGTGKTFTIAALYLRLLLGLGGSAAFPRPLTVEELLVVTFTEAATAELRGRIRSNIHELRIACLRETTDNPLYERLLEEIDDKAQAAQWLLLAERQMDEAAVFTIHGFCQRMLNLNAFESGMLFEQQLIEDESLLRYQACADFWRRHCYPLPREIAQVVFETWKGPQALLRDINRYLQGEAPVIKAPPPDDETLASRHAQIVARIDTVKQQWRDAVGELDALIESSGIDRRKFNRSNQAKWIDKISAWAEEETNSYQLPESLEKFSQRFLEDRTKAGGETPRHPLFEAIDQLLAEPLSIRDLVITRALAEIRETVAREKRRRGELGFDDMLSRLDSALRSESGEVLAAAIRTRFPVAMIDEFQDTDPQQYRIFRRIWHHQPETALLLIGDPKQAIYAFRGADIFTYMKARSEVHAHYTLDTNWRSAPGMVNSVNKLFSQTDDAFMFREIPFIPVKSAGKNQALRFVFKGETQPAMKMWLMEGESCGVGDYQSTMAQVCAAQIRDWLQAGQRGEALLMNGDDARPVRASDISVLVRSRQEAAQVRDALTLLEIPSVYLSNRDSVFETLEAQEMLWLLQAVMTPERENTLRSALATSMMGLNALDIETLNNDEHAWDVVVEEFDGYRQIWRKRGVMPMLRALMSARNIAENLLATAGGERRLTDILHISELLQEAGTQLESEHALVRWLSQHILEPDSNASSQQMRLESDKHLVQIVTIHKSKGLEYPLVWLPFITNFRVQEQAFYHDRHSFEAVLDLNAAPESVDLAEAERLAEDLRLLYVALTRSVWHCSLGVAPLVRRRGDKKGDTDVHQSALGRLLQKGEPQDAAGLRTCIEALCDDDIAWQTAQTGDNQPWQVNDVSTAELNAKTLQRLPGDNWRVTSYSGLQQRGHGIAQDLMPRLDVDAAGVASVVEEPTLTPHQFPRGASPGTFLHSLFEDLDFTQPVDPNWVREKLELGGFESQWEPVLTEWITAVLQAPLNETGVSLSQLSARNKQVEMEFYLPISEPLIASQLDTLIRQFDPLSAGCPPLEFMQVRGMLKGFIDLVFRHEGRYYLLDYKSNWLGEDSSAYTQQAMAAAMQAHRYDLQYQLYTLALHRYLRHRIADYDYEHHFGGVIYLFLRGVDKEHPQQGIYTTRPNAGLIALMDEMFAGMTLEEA", "experiment": "E. coli RecBCD inhibitors, dose response, counter-screen for AddAB inhibitor project, absorbance, V66 E. coli, mutant T4 phage (AID 492957)", "format": "functional, cell-based, Escherichia coli str. K-12 substr. MG1655"}, "A-375": {"test_system": "A-375", "experiment": "MITF: Counter assay: A375 proliferation Measured in Cell-Based System Using Plate Reader - 2084-03_Inhibitor_Dose_DryPowder_Activity. [Related pubchem assays (depositor defined):AID488944]", "format": "functional", "settings": "Homo sapiens"}}, "note": "Active and inactive are the calls of the source. No rule for the calls is given here.", "data": [{"smiles": "NC1CCC(Nc2nc(Cl)cc(-c3c[nH]c4ncccc34)n2)CC1", "note": "(centres undefined)", "values": [{"measurement": "Ki", "setting": "[1]", "result": "0.00794 µM (active)"}, {"measurement": "pKi", "setting": "[1]", "result": 8.1}]}, {"smiles": "CC(C)CC(=O)NC(c1cccs1)c1ccc2cccnc2c1O", "note": "(centres undefined)", "values": [{"measurement": "IC50", "setting": "Exodeoxyribonuclease V", "result": "> 119 µM (inactive)"}]}, {"smiles": "CCOC(=O)c1ccc(NC2=CC(=O)C(=O)c3ccccc32)cc1", "values": [{"measurement": "AC50", "setting": "A-375", "result": "6.65 µM (active)"}]}]}
